{
  "source": "patent US20240277873A1",
  "about": "“ULTRABRIGHT […] PROBES FOR DETECTION AND IMAGING” (Nanyang Technological University, priority 2021, published 2024)",
  "key": {"NE": {"molecular_target": "T1, NE (Homo sapiens, UniProt P08246)", "T1 sequence (P08246 30-267)": "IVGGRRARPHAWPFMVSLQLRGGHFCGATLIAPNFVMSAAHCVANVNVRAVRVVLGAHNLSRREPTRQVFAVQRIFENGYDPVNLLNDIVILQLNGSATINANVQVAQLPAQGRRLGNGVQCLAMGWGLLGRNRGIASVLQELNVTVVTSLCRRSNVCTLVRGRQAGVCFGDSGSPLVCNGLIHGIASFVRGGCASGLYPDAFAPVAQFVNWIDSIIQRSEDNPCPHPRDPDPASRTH", "test": "Chemiluminescence and fluorescence changes of BTPDNe and MPDNe in the presence of NE (response, selectivity, LOD, half-life)", "assay_type": "biochemical", "experimental": "Chemiluminescence and fluorescence changes of BTPDNe (20 μM) were determined in the presence of NE (0.1 U/ml), other different enzymes (˜0.1 U/mL, APN, ALP, Cas-3, cat B, GGT, β-gal and NTR) in 50 mM Tris, 1 M NaCl, 0.05% (w/v) Brij-35, pH 7.5 at 37° C. after 30 min incubation.\nChemiluminescence and fluorescence changes of BTPDNe and MPDNe (20 μM) in the presence of NE (0.1 U/mL), or other different enzymes (˜0.1 U/mL, APN, ALP, Cas-3, Cat B, GGT, β-gal, NTR, CatG and PR3) were tested after 30 min incubation in 50 mM Tris, 1 M NaCl, 0.05% (w/v) Brij-35, pH 7.5 at 37° C.\nTo determine the LOD for NE enzyme detection, the chemiluminescence of BTPDNe was recorded in 50 mM Tris, 1 M NaCl, 0.05% (w/v) Brij-35, pH 7.5 at 37° C. with different concentrations of NE (0, 0.05, 0.1, 0.5, 1, and 2 U/ml) for 30 min incubation. Then, initial reaction velocity was calculated."}, "[1]": {"test": "Blood test: chemiluminescence after incubation in healthy mouse blood", "conditions": "20 μM, 30 min, 100 μL blood", "experimental": "BTPDNe (20 μM) and MPDNe (20 μM) were incubated for 30 min in healthy mouse blood (100 μL), respectively. Chemiluminescence intensities were measured by IVIS system bioluminescence with an acquisition time of 60 s."}, "neutrophils": {"system": "neutrophils", "test": "In vitro cell chemiluminescent imaging", "assay_type": "cell-based", "conditions": "probe 10 μM", "experimental": "3T3 cells and immune cells (neutrophils, DC cells, T-cells and macrophage) (10^4 cells) were seeded into confocal cell culture dishes (dia. 15 mm) and incubated for 24 h. […] After incubation, the medium was removed, and the cells were washed thrice. Chemiluminescence imaging of the cells were recorded on LX71 inverted microscope (Olympus), which was equipped with infinity 3-1 (Lumenera) CCD camera. During imaging, the excitation light was blocked and the images were recorded under an open filter, with an acquisition time of 60 s."}, "LPS-treated mice": {"system": "LPS-treated mice", "test": "Real-time chemiluminescence imaging in LPS-induced peritonitis model", "assay_type": "in vivo", "conditions": "LPS-treated mice", "experimental": "The model was induced by intraperitoneal injection of LPS (15 ng) in 100 μL of PBS or PBS only as a control. Probe BTPDNe (40 μM·Kg^−1) or MPDNe (40 μM·Kg^−1) in PBS (10 mM, pH 7.4) containing 10% DMSO was intraperitoneally injected in mice. Then, chemiluminescent signals at different post-injection timepoints (0, 5, 10, 20, 45 and 60 min) were recorded using IVIS system bioluminescence with acquiring time of 120 s. After 3 h, the peritoneum was flushed with PBS (5 mL)+EDTA (5 mM). After erythrocyte lysis, neutrophils from C57Bl/6 mice were stained with a PE-labeled CD. After treatment with LPS for 3 h, CD11c antibody and an APC-labeled Ly6G antibody were added to the neutrophils, and the neutrophils were analyzed for double-positive events using flow cytometry (BD Biosciences). Data analysis was performed using Flowjo V10. Neutrophils were gated as CD45+CD11b+Ly6G+cells after the exclusion of doublets.\nFluorescence and chemiluminescence in vivo imaging of the probes were measured by an IVIS spectrum imaging system. Chemiluminescence imaging of the cells was recorded on LX71 inverted microscope. Tissue slices were cut by Leica, Germany slicer and imaged by a Nikon ECLIPSE 80i microscope. The images of tissue sections and cells were recorded with a LSM800 confocal laser scanning microscope. The white light was provided by 150 W LED High Bay Thermo Light."}, "[2]": {"conditions": "obtained from the literature (ACS Cent. Sci. 2017, 3, 349-358); cited from earlier work"}, "[3]": {"test": "Half-life and CL emission of uncaged BTPD in PBS", "assay_type": "physicochemical", "conditions": "in PBS (10% DMSO) at 37° C.", "experimental": "FIG. 13 depicts the half-lives of BTPDSu (20 μM) and BTPD (20 μM) in pure DMSO upon addition of excess O2^•- (100 μM) and in 10 mM PBS (10% DMSO, pH 7.4) at 37° C., respectively."}, "[4]": {"test": "Chemiluminescence and fluorescence changes of probes toward O2•- (KO2): response, selectivity, LOD", "experimental": "The chemiluminescence and fluorescence changes of BOPDSu, BTPDSu, MBPDSu and MPDSu (20 μM) were recorded at different concentrations of RONS (40 μM) and other metal ions (100 μM). BOPDSu, BTPDSu, MBPDSu and MPDSu (20 μM) in phosphate buffered saline (PBS) buffer were treated in the presence of different RONS (40 μM), and metal ions (Mg^2+, Ca^2+ or Fe^2+, 100 μM) at 37° C.\nThe chemiluminescence signals were recorded at different concentrations of KO2 (0, 50, 100, 250, 500 and 1000 nM). Then, the limit of detection (LOD) of BOPDSu, BTPDSu, MBPDSu and MPDSu were calculated by chemiluminescence intensities based on the equation: LOD=3σ/k, where σ is the standard deviation of emission intensity of blank, and k is the slope of plot of emission intensities."}, "[5]": {"test": "Chemiluminescence kinetic studies (half-lives, CL emission) of caged probes in the presence of O2•-", "assay_type": "physicochemical", "conditions": "for CL Emission: caged probe after activation", "experimental": "FIG. […]\n[…] The chemiluminescent intensities were plotted as a function of time.\n[…] The chemiluminescence signal was recorded by the microplate reader to calculate half-lives of BTPDSu at different pHs."}, "[6]": {"test": "Chemiluminescence quantum yield in the presence of O2•-", "assay_type": "physicochemical", "conditions": "probe 20 μM, O2•- 100 μM, PBS (10 mM, pH 7.4, 10% DMSO), 37° C.", "experimental": "The chemiluminescence QYs of BOPDSu, BTPDSu, MBPDSu, and MPDSu (20 μM) were measured in the presence of O2^•- (100 μM) in PBS (10 mM, pH 7.4, 10% DMSO) at 37° C. The fluorescence QYs were determined by using Rhodamine B as a standard dye (QY 36%) in PBS (10 mM, pH 7.4) (X. Zhen et al., ACS Nano 2016, 10, 6400-6409). The fluorescence QY of AMPD was obtained from the literature (O. Green et al., ACS Cent. Sci. 2017, 3, 349-358)."}, "[7]": {"test": "Stability of BTPDSu at different pHs (UV spectra)", "assay_type": "physicochemical", "conditions": "20 μM, pH 5-9 buffers with 10% DMSO, 2 h, 37° C.", "experimental": "BTPDSu and ABTPD (20 μM) were stored at different pHs (pH 5, 6, 7, 8 and 9) containing 10% DMSO for 2 h. Then, UV spectra of BTPDSu and fluorescence spectra of ABTPD were measured at different pHs."}},
  "note": "Residues, ends and D or L forms follow the SMILES beside them. *: point of attachment. X1 = COC(=O)/C=C/c1ccc(C2(OC)OOC23C2CC4CC(C2)CC3C4)cc1OCc1ccc(N*)cc1",
  "data": [
    {"molecule": "COC(=O)/C=C/c1ccc(C2(OC)OOC23C2CC4CC(C2)CC3C4)cc1OCc1ccc(NC(=O)[C@@H](NC(=O)[C@@H]2CCCN2C(=O)[C@H](C)NC(=O)[C@H](C)NC(C)=O)C(C)C)cc1", "note": "(some centres unmarked) [MPDNe, reference compound] (Ac-AAPV-X1)", "values": [
      {"measurement": "selectivity towards NE over other enzymes", "setting": "NE; APN, ALP, Cas-3, cat B, GGT, furin, β-gal, NTR, PR3, CatG (~0.1 U/mL)", "result": "high selectivity"},
      {"measurement": "chemiluminescence enhancement after incubation with NE", "setting": "NE; probe 20 μM, NE 0.1 U/mL, 50 mM Tris, 1 M NaCl, 0.05% Brij-35, pH 7.5, 37° C., 30 min, BTPDNe at 515 nm, MPDNe at 550 nm", "result": 65.1, "unit": "fold"},
      {"measurement": "chemiluminescence intensities after incubation with healthy mouse blood", "setting": "[1]", "result": "Negligible"},
      {"measurement": "activated chemiluminescence signal in neutrophils, 30 min", "setting": "neutrophils; incubation 30 min", "result": 56.4, "unit": "pixels"},
      {"measurement": "activated chemiluminescence signal in neutrophils, 1 h", "setting": "neutrophils; incubation 1 h", "result": 16.2, "unit": "pixels"},
      {"measurement": "chemiluminescent signals after 60 min", "setting": "LPS-treated mice; 60 min post injection", "result": "not"},
      {"measurement": "maximum chemiluminescent signal enhancement in peritoneum relative to negative control group", "setting": "LPS-treated mice; 3 h post LPS, i.p. probe 40 μM·kg^−1", "result": 8.5, "unit": "fold"}
    ]},
    {"molecule": "COC(=O)/C=C/c1ccc(C(=O)OC)cc1O", "note": "[AMPD]", "values": [
      {"measurement": "ΦFl, fluorescence QY of activated probe", "setting": "[2]", "result": 3.1, "unit": "%"}
    ]},
    {"molecule": "COC1(c2ccc(-c3nc4ccccc4s3)c(O)c2)OOC12C1CC3CC(C1)CC2C3", "note": "(centres unmarked) [BTPD]", "values": [
      {"measurement": "CL Emission", "setting": "[3]", "result": "~515", "unit": "nm"}
    ]},
    {"molecule": "benzothiazole-phenoxyl-dioxetane [BTPDSu]", "values": [
      {"measurement": "LOD against O2•-", "setting": "[4]; KO2 0-1000 nM, PBS (10 mM, pH 7.4, 10% DMSO), 37° C., LOD=3σ/k", "result": 6.8, "unit": "nM"},
      {"measurement": "chemiluminescence intensity increase after addition of O2•-", "setting": "[4]; probe 20 μM, O2•- 40 μM for 10 s, PBS pH 7.4, 37° C., at 480 / 520 / 580 / 540 nm", "result": 2960, "unit": "times"},
      {"measurement": "fluorescent signal enhancement upon cleavage by O2•-", "setting": "[4]; probe 20 μM, PBS (10 mM, pH 7.4, 10% DMSO), 37° C., at ~486 / 532 / 582 / 542 nm", "result": 42.1, "unit": "folds"},
      {"measurement": "chemiluminescence signal after 4 h incubation with O2•-", "setting": "[5]; BTPDSu 100 μM, O2•- 4 eq., PBS (10 mM, pH 7.4, 10% DMSO), 37° C.", "result": "still observable by naked eye"},
      {"measurement": "CL Emission", "setting": "[5]; in PBS (10% DMSO) at 37° C.", "result": 520, "unit": "nm"},
      {"measurement": "CL Emission", "setting": "[5]; in pure DMSO", "result": 485, "unit": "nm"},
      {"measurement": "ΦCl, chemiluminescence QY", "setting": "[6]", "result": 0.137, "unit": "einsteins/mol"},
      {"measurement": "stability: UV spectra at different pHs", "setting": "[7]", "result": "no obvious changes"}
    ]}
  ]
}
